The text below walks through data of patent publication US20140088114A1, “FUSED BICYCLIC KINASE INHIBITORS” (OSI Pharmaceuticals ,LLC, priority 2011, published 2014).

pIC50: −log10 of the molar value. Like-named read-outs stand apart in the source and are kept apart here.

Assay type in all cases: cell-based
One assay addresses T1, RON (Homo sapiens, UniProt Q04912).
T1 construct: expressed in transfected cells; host or cells: HeLa
T1 sequence (Q04912 913-1400 limits assumed): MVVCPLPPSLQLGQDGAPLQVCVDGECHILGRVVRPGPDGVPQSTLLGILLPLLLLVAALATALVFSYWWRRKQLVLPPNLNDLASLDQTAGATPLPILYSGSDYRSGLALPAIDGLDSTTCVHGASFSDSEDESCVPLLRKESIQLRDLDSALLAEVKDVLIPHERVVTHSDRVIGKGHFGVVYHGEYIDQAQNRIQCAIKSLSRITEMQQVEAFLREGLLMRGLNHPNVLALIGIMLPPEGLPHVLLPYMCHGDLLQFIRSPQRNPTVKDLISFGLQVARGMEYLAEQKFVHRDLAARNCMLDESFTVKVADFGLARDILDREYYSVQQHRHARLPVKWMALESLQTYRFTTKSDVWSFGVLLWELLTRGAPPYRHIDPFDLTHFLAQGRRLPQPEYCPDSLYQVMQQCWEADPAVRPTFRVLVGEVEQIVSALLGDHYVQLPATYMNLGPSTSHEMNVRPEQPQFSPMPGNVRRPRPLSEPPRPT
Briefly: sfRON cell mechanistic assay (HeLa), phosphorylated RON. The protocol: The cellular activity of the compounds of the present invention against RON may be determined by the following procedure. HeLa cells were plated in Falcon 3072 96-well plates in growth media (DMEM, 10% FBS, 1% L-glutamine) at a density of 10000 cells/well and incubated at 37° C., 5% CO2 overnight. The following day, cells were transfected with 0.2 μg sfRON-pcDNA plasmid DNA with 0.5 μL Lipofectamine2000 per well in the presence of 50 μL OPTI-MEM, incubated at 37° C., 5% CO2 overnight. Costar 3915 96-well assay plates were coated with rabbit Anti-RON antibody at 2.0 μg/mL, sealed, and incubated overnight at 4° C. On the third day, coated plates were washed with PBS and blocked with 3% BSA. For the sfRON transfected cells, one-tenth volume of a 10× concentration of compounds was added to the wells in a 6-point dilution series. The dilution series was composed of an initial 1:5 dilution of a 10 mM DMSO stock solution of compound in DMSO, followed by a 1:10 dilution in growth media, for a final DMSO concentration on cells of 0.5%. Control wells were treated with 0.5% DMSO. The typical range of dilution was 10 μM to 3 nM. Once compound was added to the cells, plates were incubated for four hours at 37° C., 5% CO2. Plates were then washed in PBS, and lysed in triton-based lysis buffer. Lysates were transferred to the blocked capture plates. The phosphorylated RON levels were measured by incubating with a Goat polyclonal antibody against phosphorylated RON ([pYpY1238/1239]) followed by an anti-Goat antibody conjugated to HRP. Signal was measured on a Wallac Victor plate reader with luminance. The DMSO signal of the control wells was defined as 100% and the percent of inhibition of phosphorylated RON was expressed as percent of control. IC50 values were determined from the percent of control data using a standard four-parameter model.
The IC50 values of exemplary compounds of the present invention determined in a sfRON cell mechanistic assay using the HeLa cell line according to the procedures described herein in at least duplicate experiments are abbreviated as follows and are shown in Table 3: A, IC50≦0.03 μM; B, 0.03 μM<IC50≦0.1 μM; C, 0.1 μM<IC50≦1 μM; D, 1 μM<IC50≦3 μM; ND, not determined. The Example # of Table 3 corresponds to the compound example number as illustrated in the Examples section.

A further assay concerns the target T2, Aurora B (Homo sapiens, UniProt Q96GD4).
T2 construct: HT-29 cells grown in complete growth media; endogenous in cells; host or cells: HT-29
As to the kind of experiment: Aurora B cell mechanistic assay (HT-29), phospho-Histone H3 (Ser10) ELISA. The settings on record: HT-29 cell line, inhibition of phospho-Histone H3 (Ser10), at least duplicate experiments (italicized if single); read-out: Aurora B mech IC50. As to the method:
The cellular activity of the compounds of the present invention against Aurora B may be determined by the following procedure. HT-29 cells grown in complete growth media (McCoy's 5A, 10% FCS, 1% L-glutamine) were plated into wells of a 96 well tissue culture plate (Falcon 3072) at a cell density of 4×10^4 cells/0.09 ml media/well. Cells were subsequently incubated overnight in a 5% CO2 humidified 37° C. incubator. The following day 10 μl of a 10× stock of test compound serially diluted in media was added to the cells and incubated for 1 h at 37° C. at which time Calyculin A (Cell Signaling #9902) was added at a concentration of 100 nM and cells incubated for an additional 30 minutes in a 5% CO2 humidified 37° C. incubator. Media was then aspirated and cells lysed using a Triton based lysis buffer. Lysates were transferred to a pre-coated anti-Histone H3 antibody coated plate supplied by Cell Signaling in their PathScan phospho-Histone H3 (Ser10) ELISA kit (#7155). After an overnight incubation with lysate the ELISA was continued following the manufacturer's instructions. Signal was measured on a Wallac Victor plate reader at 450 nm. DMSO control treated cells served as 100% signal and an Aurora B kinase inhibitor served as 100% inhibition. The percent inhibition of phospho-Histone H3 (Ser10) was expressed as % control. IC50 values were calculated from the percent control data using a standard four-parameter model.
The IC50 values of exemplary compounds of the present invention determined in a Aurora B cell mechanistic assay using the HT-29 cell line according to the procedures described herein in at least duplicate experiments are abbreviated as follows and are shown in Table 4: A, IC50≦0.03 μM; B, 0.03 μM<IC50≦0.1 μM; C, 0.1 μM<IC50≦1 μM; D, 1 μM<IC50≦3 μM; ND, not determined. If only data from single experiments are available, the abbreviations are italicized. The Example # of Table 4 corresponds to the compound example number as illustrated in the Examples section.
(In an ELISA, binding on a coated surface is turned into a signal by an enzyme label.)

The subject of another assay is Karpas-299 cells. Briefly: Karpas-299 cell proliferation assay (CellTiter-Glo). Conditions: Homo sapiens, 72 h; Karpas-299 cell line (NPM-ALK), 3 days incubation, at least duplicate experiments; read-out: Prolif. IC50. The protocol: The effect of inhibitors on the proliferation of Karpas-299 cells (DSMZ no. ACC 31) was determined using the following protocol. Karpas-299 cells were plated in 96-well white tissue culture treated plates (Corning 3917) in growth medium (RPMI, 10% FCS) at a density of 5000 cells/well in a total volume of 135 μL and incubated at 37° C., 5% CO2, 95% humidity overnight. The following day, one-tenth volume of a 10× concentration of compounds was added to the wells in an 8-point dilution series. Compounds were serially diluted (1:4) in DMSO from a 10 mM stock solution prior to dilution in growth media to the 10× working concentrations (5% DMSO). Final concentration of DMSO in compound-treated wells was 0.5%. Control wells containing growth media or growth media/0.5% DMSO were included in all test plates. The typical dilution range is 10 μM to 0.1 nM. Once the compounds were added to the cells, plates were incubated for 3 days at 37° C., 5% CO2 at 95% humidity. After 72 hours, all cells and reagents were equilibrated to room temperature and 15 μL of CellTiter-Glo reagent (Promega #G7573) was added to each well. Plates were shaken on a platform for 10 minutes at room temperature prior to reading luminescence. The value of the signal of the control wells was set as 100% growth and growth inhibition was expressed as percent of control. IC50 values were determined from the percent of control data using a standard four-parameter curve fit equation.
The IC50 values of exemplary compounds of the present invention determined in a cell proliferation assay using the Karpas-299 cell line according to the procedures described herein in at least duplicate experiments are abbreviated as follows and are shown in Table 5: A, IC50≦0.03 μM; B, 0.03 μM<IC50≦0.1 μM; C, 0.1 μM<IC50≦1 μM; D, 1 μM<IC50≦3 μM; ND, not determined. The Example # of Table 5 corresponds to the compound example number as illustrated in the Examples section.
The Karpas-299 cell line has a t(2;5) chromosomal translocation and expresses the NPM-ALK fusion protein, resulting in constitutively active ALK. […] Ther. 6(12):3314-22 (2007)]. With this “ALK-driven” cell line by ALK, the cell proliferation IC50 values can thus be used as surrogate for the p-ALK cell mechanistic IC50 values.
(In general: ATP-based viability assays read luminescence as a measure of living cells.)

The mark [1] stands for this setting: Table 6: comparison X = C1-3haloalkyl vs. X = C1-3alkyl, read-out: sfRON cell mechanistic.

T2 sequence (Q96GD4 whole entry): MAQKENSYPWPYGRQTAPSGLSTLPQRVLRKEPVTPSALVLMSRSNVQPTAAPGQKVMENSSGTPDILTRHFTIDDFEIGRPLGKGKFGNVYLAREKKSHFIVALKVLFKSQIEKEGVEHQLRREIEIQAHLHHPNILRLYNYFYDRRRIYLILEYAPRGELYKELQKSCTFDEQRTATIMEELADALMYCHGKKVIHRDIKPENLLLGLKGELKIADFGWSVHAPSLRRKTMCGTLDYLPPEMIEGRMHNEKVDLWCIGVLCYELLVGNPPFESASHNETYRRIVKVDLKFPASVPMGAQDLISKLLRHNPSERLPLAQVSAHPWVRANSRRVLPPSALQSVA

Take `COc1ccc(F)c(Cl)c1[C@@H](C)c1c[nH]c2ncc(-c3cnn([C@H]4CC[C@H](O)CC4)c3)cc12` [reference compound]: on RON (setting [1]), the pIC50 was 6.00 to 7.00.
Still for that read-out and setting: the figure for `C[C@H](c1c(OC(F)F)ccc(F)c1Cl)c1c[nH]c2ncc(-c3cnn([C@H]4CC[C@H](O)CC4)c3)cc12` [reference compound] is 7.00 to 7.52; for `CC(c1c(Cl)ccc(F)c1Cl)c1c[nH]c2ncc(-c3cnn(C)c3)cc12` (stereo not drawn) [reference compound] it is 5.52 to 6.00.
`COc1ccc(F)c(Cl)c1[C@H](CF)c1c[nH]c2ncc(-c3cnn([C@H]4CC[C@H](O)CC4)c3)cc12` [Example 2, trans-4-(4-{3-[(1R)-1-(2-chloro-3-fluoro-6-methoxyphenyl)-2-fluoroethyl]-1H-pyrrolo[2,3-b]pyridin-5-yl}-1H-pyrazol-1-yl)cyclohexanol]: the pIC50 was 6.00 to 7.00 on Aurora B; 5.52 to 6.00 at RON (sfRON transfected HeLa cells, four hours incubation, inhibition of phosphorylated RON, at least duplicate experiments, read-out: sfRON mech IC50); 6.00 to 7.00 in the assay on Karpas-299 cells.
